Tests used:
[1] = tested on: T. b. brucei procyclic trypanosomes (Lab 110 EATRO strain); test: In vitro antitrypanosomal activity, procyclic trypanosomes in T2 medium; assay type: cell-based, Trypanosoma brucei brucei; details: Trypanosoma brucei, 3-5 days
Procedure: The antitrypanosomal effects of HETA and other nucleosides were examined in the Lab 110 EATRO strain of T. b. brucei in culture.
Cells were cultured as described in Bacchi et al. Exp. Parasitol. 68, 392, 1989. Cells were then grown in the presence of the compounds for 3-5 days. Drugs were filtered, sterilized and added aseptically. Control cells achieved a maximum density of 1.5-3.5×10^7 /ml. Hemocytometer counts were made daily and the results were expressed as a percent of control growth. IC50 plots were obtained by graphing log (drug) vs. percent growth inhibition.
Trypanocidal Activity of MTA and MTR Analogs
against T. b. brucei procyclic trypanosomes in T2 medium.

[2] = biological target: T1, T. b. brucei MTA phosphorylase (Trypanosoma brucei, UniProt Q57XS4); test: T. b. brucei MTA phosphorylase substrate assay; assay type: biochemical; details: relative to MTA
T1 construct: MTA or analogs as substrates
T1 sequence (Q57XS4 entry or part of it): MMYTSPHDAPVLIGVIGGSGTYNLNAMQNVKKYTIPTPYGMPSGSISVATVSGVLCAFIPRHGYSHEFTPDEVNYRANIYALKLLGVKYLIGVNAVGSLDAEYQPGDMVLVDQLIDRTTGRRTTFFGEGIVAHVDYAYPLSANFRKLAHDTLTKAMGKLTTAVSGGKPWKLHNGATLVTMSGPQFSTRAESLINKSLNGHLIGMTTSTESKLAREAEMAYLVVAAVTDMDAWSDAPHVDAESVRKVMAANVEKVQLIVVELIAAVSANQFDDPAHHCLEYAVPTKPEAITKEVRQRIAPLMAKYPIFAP
Procedure: ^a MTA phosphorylase was assayed according to Ghoda et al., using 200
μM MTA (saturating) or analogs as substrates. Specific activities of
the dialyzed enzyme preparations were with 50 mM PO4, 104.97 n
moles/mg protein/h; without PO4, 28.27 n moles/mg protein/h. Results
are expressed as percent activity compared to as substrate with and
without PO4, respectively.

[3] = biological target: T2, Mouse Liver MTA Phosphorylase (Mus musculus, UniProt Q9CQ65); test: Mouse liver MTA phosphorylase substrate/inhibitor assay; assay type: biochemical; details: substrate activity relative to MTA
T2 sequence (Q9CQ65 1-283): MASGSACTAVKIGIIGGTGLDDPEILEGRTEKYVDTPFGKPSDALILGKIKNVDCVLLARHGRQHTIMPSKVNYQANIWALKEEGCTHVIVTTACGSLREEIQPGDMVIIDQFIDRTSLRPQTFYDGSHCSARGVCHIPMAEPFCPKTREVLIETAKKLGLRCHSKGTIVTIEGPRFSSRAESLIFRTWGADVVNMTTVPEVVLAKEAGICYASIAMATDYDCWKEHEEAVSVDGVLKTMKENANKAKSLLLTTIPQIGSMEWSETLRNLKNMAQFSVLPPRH
Procedure: ^a MTA phosphorylase activity was assayed as described in Sufrin et

[4] = tested on: L1210 cells (MTA phosphorylase-deficient); test: Growth inhibition of L1210 cells; assay type: cell-based, mouse; details: Mus musculus, L1210, 48 h
Procedure: (§1) L1210, L5178Y and MOLT-4 cell lines were grown in RPMI 1640 and 10% Nu Serum (Collaborative Research Inc., Lexington, Mass.) and CCRF-CEM cells were grown in 10% Horse Serum (Gibco Laboratories, Grand Island, N.Y.) and maintained as previously described for suspension cultures by Pera et al. in Cancer Res. 46, 1148, 1986. Cell cultures (0.3×10^5 cells/ml) were treated with each compound at 0.1 to 1000 μM to determine the concentration that inhibited growth by 50% (IC50) at 48 hr for the L1210 and L5178Y cells and at 96 hr for the CCRF-CEM and MOLT-4 cells. The incubation times allowed approximately 4 cell doublings in each cell line. All compounds were freshly prepared prior to treatment by dissolving in DMSO and diluting in serum-free media. Cells were counted by electron particle counting (Model XF' Coulter Counter; Coulter Electronics, Hialeah, Fla.).
(§2) For each compound, the concentrations required to inhibit cell growth by 50% (IC50 values) are shown in Table 7 for two murine leukemic cell lines, L1210 and L5178Y [MTA phosphorylase-deficient and MTA phosphorylase-containing, respectively] and two human leukemic cell lines, CCRF-CEM and MOLT-4 [MTA phosphorylase-deficient and MTA phosphorylase-containing, respectively]. ETA, MFETA, HETA and PTA had lower IC50 values in the L5178Y cells than in the L1210 cells. […] This differential is consistent with the possibility that, in L5178Y cells, MFETA is cleaved by MTA phosphorylase to the growth inhibitory metabolite, 5-monofluoroethylthioribose-1-phosphate (MFETR-1-P).

[5] = tested on: L5178Y cells (MTA phosphorylase-containing); test: Growth inhibition of L5178Y cells; assay type: cell-based, mouse; details: Mus musculus, 48 h
Procedure: as §1, §2

[6] = tested on: CCRF-CEM cells (MTA phosphorylase-deficient); test: Growth inhibition of CCRF-CEM cells; assay type: cell-based, human; details: Homo sapiens, 96 h
Procedure: as §1, §2

[7] = tested on: MOLT-4 cells (MTA phosphorylase-containing); test: Growth inhibition of MOLT-4 cells; assay type: cell-based, human; details: Homo sapiens, MOLT-4, 96 h
Procedure: as §1, §2

[8] = tested on: T. b. brucei LAB 110 EATRO; test: In vivo antitrypanosomal activity, LAB EATRO mouse infection model; details: 7 days, miniosmotic pump
Procedure: ^a Animals were treated with surgically implanted miniosmotic pumps
loaded as per manufacturers instructions with MTA, HETA or MFETA suspende

Nc1ncnc2c1ncn2[C@@H]1O[C@H](CSCCCO)[C@@H](O)[C@H]1O [HPTA]
IC50 [1]: 170 µM | Percent Control Activity ([2]; +50 mM PO4, 200 μM substrate): 72.5% | Percent Control Activity ([2]; No PO4, 200 μM substrate): 101.8%

Nc1ncnc2c1ncn2[C@@H]1O[C@H](CSCCCF)[C@@H](O)[C@H]1O [MFPTA, reference compound]
IC50 [1]: 120 µM | Substrate (% Control) [3]: 66 % Control | Percent Control Activity ([2]; +50 mM PO4, 200 μM substrate): 47.5% | Percent Control Activity ([2]; No PO4, 200 μM substrate): 116.4% | IC50 [4]: 600 µM | IC50 [5]: 600 µM | IC50 [6]: 160 µM | IC50 [7]: 25 µM

CSC[C@H]1O[C@@H](n2cnc3c(N)ncnc32)[C@H](O)[C@@H]1O [MTA, 5'-deoxy-5'-methylthioadenosine, reference compound]
% Cured ([8]; 25 mg/kg/day): 0% | MSD (mean survival in days of animals dying of infection) ([8]; 25 mg/kg/day): 5.0 days | Number Cured Total ([8]; 25 mg/kg/day): 0/5 | % Cured ([8]; 50 mg/kg/day): 0% | MSD (mean survival in days of animals dying of infection) ([8]; 50 mg/kg/day): 5.0 days | Number Cured Total ([8]; 50 mg/kg/day): 0/5 | % Cured ([8]; 100 mg/kg/day): 0% | MSD (mean survival in days of animals dying of infection) ([8]; 100 mg/kg/day): 5.0 days | Number Cured Total ([8]; 100 mg/kg/day): 0/5 | Substrate (% Control) [3]: 100 % Control | Percent Control Activity ([2]; +50 mM PO4, 200 μM substrate): 100% | Percent Control Activity ([2]; No PO4, 200 μM substrate): 100% | IC50 [4]: 850 ± 120 µM | IC50 [5]: 200 ± 45 µM | IC50 [6]: 150 ± 60 µM | IC50 [7]: 11 ± 7 µM

N=C(N)c1ccc(OCCCCCOc2ccc(C(=N)N)cc2)cc1 [PENTAMIDINE]
IC50 [1]: 0.2 µM

CCCSC[C@H]1O[C@@H](n2cnc3c(N)ncnc32)[C@H](O)[C@@H]1O [PTA, reference compound]
IC50 [1]: 46 µM | Substrate (% Control) [3]: 102 % Control | Percent Control Activity ([2]; +50 mM PO4, 200 μM substrate): 57.5% | Percent Control Activity ([2]; No PO4, 200 μM substrate): 96.4% | IC50 [4]: 1000 µM | IC50 [5]: 500 µM | IC50 [6]: 160 µM | IC50 [7]: 45 µM

Reference: US5563125A, “5'-deoxy-5'-(substituted)alkylthioribose compounds and their pharmaceutical compositions” (priority 1992, dated 1996)
